The record followed here is ChEMBL document CHEMBL5385964, “1,5-Disubstituted tetrazoles as PD-1/PD-L1 antagonists” (RSC Med Chem, 2024).

In general, IC50 refers to the concentration at which inhibition is half-maximal. High values mean weaker potency, low ones greater potency.

The source made the active and inactive calls. The rule behind the calls is not given here.

Chain of Programmed cell death 1 ligand 1 (Homo sapiens) (Q9NZQ7 whole entry): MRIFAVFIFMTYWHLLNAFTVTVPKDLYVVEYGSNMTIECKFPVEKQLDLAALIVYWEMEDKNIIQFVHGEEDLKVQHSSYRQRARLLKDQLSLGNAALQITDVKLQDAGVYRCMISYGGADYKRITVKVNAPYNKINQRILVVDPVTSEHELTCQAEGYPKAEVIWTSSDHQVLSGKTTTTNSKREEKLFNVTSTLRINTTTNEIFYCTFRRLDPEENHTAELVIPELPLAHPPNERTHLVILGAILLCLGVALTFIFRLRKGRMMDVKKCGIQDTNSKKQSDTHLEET

The target in one test is Programmed cell death protein 1/Programmed cell death 1 ligand 1 (Homo sapiens, UniProt Q15116+Q9NZQ7). Briefly: Antagonist activity at PD-1/PD-L1 interaction (unknown origin). The test is classed as protein-complex assay.
Chain of Programmed cell death protein 1/Programmed cell death 1 ligand 1 (Q15116 whole entry): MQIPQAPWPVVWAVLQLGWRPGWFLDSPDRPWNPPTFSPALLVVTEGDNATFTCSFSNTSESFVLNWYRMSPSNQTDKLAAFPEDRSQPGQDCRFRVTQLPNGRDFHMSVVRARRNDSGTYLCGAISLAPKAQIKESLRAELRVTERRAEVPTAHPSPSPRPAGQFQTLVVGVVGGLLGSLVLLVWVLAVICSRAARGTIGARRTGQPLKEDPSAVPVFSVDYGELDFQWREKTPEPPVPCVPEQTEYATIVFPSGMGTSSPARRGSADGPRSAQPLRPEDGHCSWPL
Chain of Programmed cell death protein 1/Programmed cell death 1 ligand 1 (Q9NZQ7 whole entry): as the sequence (Q9NZQ7 whole entry) above
As to `COCCNCc1ccc(C(F)(F)F)c(/C=C/c2cccc(-c3cccc(/C=C/c4cc(CN[C@@](C)(CO)C(=O)O)ccc4C(F)(F)F)c3C)c2Cl)c1`, half-maximal inhibition (IC50) was put at 2.3 nM.

For `Cc1c(/C=C/c2cc(CN[C@@H](CO)C(=O)O)ccc2C(F)(F)F)cccc1-c1ccc2c(c1)OCCO2`, 13 nM corresponded to half-maximal inhibition (IC50). The same measure, in the same setting: the result for `COc1cc(/C=C2\CCc3c2cccc3-c2cccc3c2CC/C3=C\c2cc(CN[C@H](CO)C(=O)O)cc(OC)c2)cc(CN[C@@H](CO)C(=O)O)c1` reads 2.9 nM.

Another test addresses Programmed cell death 1 ligand 1 (Homo sapiens) (UniProt Q9NZQ7). Nature of the test: Induction of human PD-L1 dimerization at 1:1 molar ratio of protein:compound by 1H NMR analysis.
Take `Cc1c(/C=C/n2nnnc2C(C)NCCCO)cccc1-c1ccc2c(c1)OCCO2` (stereo unspecified): the outcome was Active. Consider `CCNCc1nnnn1/C=C/c1cccc(-c2ccccc2)c1C`, for which the result was Active. Regarding `Cc1c(/C=C/n2nnnc2CN2CCCOC2)cccc1-c1ccccc1`, the result was Active.
